Laboratory results taken from US7235379B2, “Method and medium for the detection/identification of microorgranisms with esterase activity” (Bio Merieux, priority 2000, dated 2007).
Values joined by “and” are separate entries in the source; they are usually repeats but may differ in a detail not shown here. Equal entries are not always repeated. Structures can show the parent of a compound that is named as a salt. Where two headings read alike, the source gives them in different places.

Tests used:
Salmonella spp. 017 [1] = tested on: Salmonella spp. 017
Method: (§1) The esterase substrate tested is 5-bromo-3-indolyl nonanoate. A 40 g/l stock solution of substrate is prepared in a mixture of 40% dimethyl sulfoxide and 60% Tween 20. A sufficient volume is added to a supercooled MacConkey medium (without neutral red) to give a substrate concentration of 500 mg/l.
(§2) Microorganisms originating from the Applicant's collection were inoculated onto this medium from a 0.5 McFarland suspension by isolation in three quadrants. The dishes were incubated at 37° C. for 48 hours. The colonies formed were examined visually after 24 and 48 hours of incubation. The coloration of these colonies and the intensity of this coloration were noted.
(§3) Note: In the above Examples, the numbers following the strains correspond to the number of each strain referenced in the Applicant's collection. The intensity of coloration corresponds to an arbitrary scale defined as follows: […]

[2] = tested on: Salmonella paratyphi A 006
Method: as §1, §2, §3

Salmonella typhi 118 = tested on: Salmonella typhi 118
Method: as §1, §2, §3

Salmonella spp. 017 [3] = experiment: Ex.4 colony coloration, 5-bromo-3-indolyl nonanoate, DMSO/Tween 20, MacConkey; assay type: cell-based; details: 8 ml/l Tergitol 4
Method: This medium is then separated into eight portions. […] Microorganisms originating from the Applicant's collection were inoculated onto this medium from a 0.5 McFarland suspension by isolation in three quadrants. The dishes were incubated at 37° C. for 48 hours. The colonies formed were examined visually after 24 and 48 hours of incubation. The coloration of these colonies and the intensity of this coloration were noted.

[4] = tested on: bacterial strains exhibiting an esterase activity; details: between 2 and 16 ml/l, more precisely between 4 and 8 ml/l
Method: as §1, §2

[5] = tested on: Staphylococcus aureus 276; experiment: Ex.3 colony coloration, 5-bromo-4-chloro-3-indolyl nonanoate 250 mg/l, DMSO/Tween 20; assay type: cell-based; also: key: 0: no activity; 0.1: trace of coloration; 0.5: very pale coloration; 1: distinct coloration of low intensity; 2: clear coloration of medium intensity; 3: intense coloration; 4: very intense coloration
Method: (§4) The esterase substrate tested is 5-bromo-4-chloro-3-indolyl nonanoate. A 40 g/l stock solution of substrate is prepared in a mixture of 40% dimethyl sulfoxide and 60% Tween 20. A sufficient volume is added to a supercooled MacConkey medium (without neutral red) to give a substrate concentration of 250 mg/l.

[6] = tested on: Pseudomonas aeruginosa 165; experiment: as above; assay type: cell-based; also: key: 0: no activity; 0.1: trace of coloration; 0.5: very pale coloration; 1: distinct coloration of low intensity; 2: clear coloration of medium intensity; 3: intense coloration; 4: very intense coloration
Method: as §4

[7] = tested on: Listeria monocytogenes 023; experiment: as above; assay type: cell-based; also: key: 0: no activity; 0.1: trace of coloration; 0.5: very pale coloration; 1: distinct coloration of low intensity; 2: clear coloration of medium intensity; 3: intense coloration; 4: very intense coloration
Method: as §4

Salmonella arizonae 018 = experiment: Ex.2 colony coloration, 5-bromo-3-indolyl nonanoate, methanol/bile salts, MacConkey; assay type: cell-based; as to intensity of coloration: key: 0: no activity; 0.1: trace of coloration; 0.5: very pale coloration; 1: distinct coloration of low intensity; 2: clear coloration of medium intensity; 3: intense coloration; 4: very intense coloration
Method: (§5) The esterase substrate tested is 5-bromo-3-indolyl nonanoate. A 25 g/l stock solution of substrate is prepared in methanol to which 5 g/l of bile salts have been added. A sufficient volume is added to a supercooled MacConkey medium (without neutral red) to give a substrate concentration of 500 mg/l.

[8] = tested on: Gram-positive bacteria or yeasts
Method: as §1, with “5-bromo-4-chloro-3-indolyl” for “5-bromo-3-indolyl”, “250” for “500”
as §2

Hafnia alvei 025 = experiment: Ex.4 colony coloration, 5-bromo-3-indolyl nonanoate, DMSO/Tween 20, MacConkey; assay type: cell-based; set-up: key: —: absence of colour or intensity; details: 8 ml/l Tergitol 4
Serratia marcescens 038 [9] = experiment: Ex.1 colony coloration, 5-bromo-3-indolyl nonanoate, DMSO/Tween 20, MacConkey; assay type: cell-based
Serratia marcescens 038 [10] = experiment: Ex.2 colony coloration, 5-bromo-3-indolyl nonanoate, methanol/bile salts, MacConkey; assay type: cell-based
Method: as §5

CCCCC(CC)CCC(CC(C)C)OS(=O)(=O)O (stereo not shown) [Tergitol 4, 7-ethyl-2-methyl-4-undecanoate hydrogensulfate or its sodium salt]
color (Salmonella spp. 017 [1]; 2 ml/l, 24 h): gray | intensity of coloration (Salmonella spp. 017 [1]; 2 ml/l, 24 h): 1 | color (Salmonella spp. 017 [1]; 2 ml/l, 48 h): gray | intensity of coloration (Salmonella spp. 017 [1]; 2 ml/l, 48 h): 3 | color (Salmonella spp. 017 [1]; 4 ml/l, 24 h): gray | intensity of coloration (Salmonella spp. 017 [1]; 4 ml/l, 24 h): 1.5 | color (Salmonella spp. 017 [1]; 4 ml/l, 48 h): gray | intensity of coloration (Salmonella spp. 017 [1]; 4 ml/l, 48 h): 3.5 | color (Salmonella spp. 017 [1]; 8 ml/l, 24 h): gray | intensity of coloration (Salmonella spp. 017 [1]; 8 ml/l, 24 h): 2 | color (Salmonella spp. 017 [1]; 8 ml/l, 48 h): gray | intensity of coloration (Salmonella spp. 017 [1]; 8 ml/l, 48 h): 3 | color (Salmonella spp. 017 [1]; 16 ml/l, 24 h): gray | intensity of coloration (Salmonella spp. 017 [1]; 16 ml/l, 24 h): 1 | color (Salmonella spp. 017 [1]; 16 ml/l, 48 h): gray | intensity of coloration (Salmonella spp. 017 [1]; 16 ml/l, 48 h): 2 | color ([2]; 2 ml/l, 24 h): gray | intensity of coloration ([2]; 2 ml/l, 24 h): 2 | color ([2]; 2 ml/l, 48 h): gray | intensity of coloration ([2]; 2 ml/l, 48 h): 2 | color ([2]; 4 ml/l, 24 h): gray | intensity of coloration ([2]; 4 ml/l, 24 h): 2 | color ([2]; 4 ml/l, 48 h): gray | intensity of coloration ([2]; 4 ml/l, 48 h): 2.5 | color ([2]; 8 ml/l, 24 h): gray | intensity of coloration ([2]; 8 ml/l, 24 h): 3 | color ([2]; 8 ml/l, 48 h): gray | intensity of coloration ([2]; 8 ml/l, 48 h): 3 | color ([2]; 16 ml/l, 24 h): gray | intensity of coloration ([2]; 16 ml/l, 24 h): 2 | color ([2]; 16 ml/l, 48 h): gray | intensity of coloration ([2]; 16 ml/l, 48 h): 2 | color (Salmonella typhi 118): gray | intensity of coloration (Salmonella typhi 118; sodium salt): 3 and 2 and 3.5 | color (Salmonella spp. 017 [3]; 24 h): gray | intensity of coloration (Salmonella spp. 017 [3]; 24 h): 2.5 | color (Salmonella spp. 017 [3]; 48 h): gray | intensity of coloration (Salmonella spp. 017 [3]; 48 h): 3.5 | effect on intensity of coloration [4]: significantly increases the intensity of coloration | intensity of coloration ([5]; 0.001 ml/l, 24 h): 2 | intensity of coloration ([5]; 0.001 ml/l, 48 h): 2 | intensity of coloration ([5]; 0.01 ml/l, 24 h): 2 | intensity of coloration ([5]; 0.01 ml/l, 48 h): 3 | intensity of coloration ([5]; 0.1 ml/l, 24 h): 3 | intensity of coloration ([5]; 0.1 ml/l, 48 h): 3 | intensity of coloration ([5]; 1 ml/l (1st col), 24 h): 2 | intensity of coloration ([5]; 1 ml/l (1st col), 48 h): 3 | intensity of coloration ([5]; 1 ml/l (2nd col), 24 h): 2 | intensity of coloration ([5]; 1 ml/l (2nd col), 48 h): 3 | intensity of coloration ([6]; 0.001 ml/l, 24 h): 0.1 | intensity of coloration ([6]; 0.001 ml/l, 48 h): 0.5 | intensity of coloration ([6]; 0.01 ml/l, 24 h): 0.5 | intensity of coloration ([6]; 0.01 ml/l, 48 h): 1 | intensity of coloration ([6]; 0.1 ml/l, 24 h): 0.1 | intensity of coloration ([6]; 0.1 ml/l, 48 h): 0.5 | intensity of coloration ([6]; 1 ml/l (1st col), 24 h): 0.5 | intensity of coloration ([6]; 1 ml/l (1st col), 48 h): 0.5 | intensity of coloration ([6]; 1 ml/l (2nd col), 24 h): 0.5 | intensity of coloration ([6]; 1 ml/l (2nd col), 48 h): 1 | intensity of coloration ([7]; 0.001 ml/l, 24 h): 2 | intensity of coloration ([7]; 0.001 ml/l, 48 h): 2 | intensity of coloration ([7]; 0.01 ml/l, 24 h): 2.5 | intensity of coloration ([7]; 0.01 ml/l, 48 h): 3 | intensity of coloration ([7]; 0.1 ml/l, 24 h): 2 | intensity of coloration ([7]; 0.1 ml/l, 48 h): 3 | intensity of coloration ([7]; 1 ml/l (1st col), 24 h): 2 | intensity of coloration ([7]; 1 ml/l (1st col), 48 h): 3 | intensity of coloration ([7]; 1 ml/l (2nd col), 24 h): 2 | intensity of coloration ([7]; 1 ml/l (2nd col), 48 h): 3 | color (Salmonella arizonae 018; 2 ml/l, 24 h): gray | intensity of coloration (Salmonella arizonae 018; 2 ml/l, 24 h): 2.5 | color (Salmonella arizonae 018; 2 ml/l, 48 h): gray | intensity of coloration (Salmonella arizonae 018; 2 ml/l, 48 h): 3 | color (Salmonella arizonae 018; 4 ml/l, 24 h): gray | intensity of coloration (Salmonella arizonae 018; 4 ml/l, 24 h): 2 | color (Salmonella arizonae 018; 4 ml/l, 48 h): gray | intensity of coloration (Salmonella arizonae 018; 4 ml/l, 48 h): 2.5 | color (Salmonella arizonae 018; 8 ml/l, 24 h): gray | intensity of coloration (Salmonella arizonae 018; 8 ml/l, 24 h): 0.5 | color (Salmonella arizonae 018; 8 ml/l, 48 h): gray | intensity of coloration (Salmonella arizonae 018; 8 ml/l, 48 h): 1.5 | color (Salmonella arizonae 018; 16 ml/l, 24 h): gray | intensity of coloration (Salmonella arizonae 018; 16 ml/l, 24 h): 0.5 | color (Salmonella arizonae 018; 16 ml/l, 48 h): gray | intensity of coloration (Salmonella arizonae 018; 16 ml/l, 48 h): 2 | effect on the expression of the esterase activity ([8]; 0.001 to 1 ml/l tested): positive effect | growth on culture medium ([8]; excessive Tergitol 4 concentrations): cannot develop on a culture medium | color (Hafnia alvei 025; 24 h): — | color (Hafnia alvei 025; 48 h): — | color (Serratia marcescens 038 [9]; 2 ml/l, 24 h): gray | intensity of coloration (Serratia marcescens 038 [9]; 2 ml/l, 24 h): 2 | color (Serratia marcescens 038 [9]; 2 ml/l, 48 h): gray | intensity of coloration (Serratia marcescens 038 [9]; 2 ml/l, 48 h): 3 | color (Serratia marcescens 038 [9]; 4 ml/l, 24 h): gray | intensity of coloration (Serratia marcescens 038 [9]; 4 ml/l, 24 h): 2 | color (Serratia marcescens 038 [9]; 4 ml/l, 48 h): gray | intensity of coloration (Serratia marcescens 038 [9]; 4 ml/l, 48 h): 4 | color (Serratia marcescens 038 [9]; 8 ml/l, 24 h): gray | intensity of coloration (Serratia marcescens 038 [9]; 8 ml/l, 24 h): 2 | color (Serratia marcescens 038 [9]; 8 ml/l, 48 h): gray | intensity of coloration (Serratia marcescens 038 [9]; 8 ml/l, 48 h): 4 | color (Serratia marcescens 038 [9]; 16 ml/l, 24 h): gray | intensity of coloration (Serratia marcescens 038 [9]; 16 ml/l, 24 h): 2 | color (Serratia marcescens 038 [9]; 16 ml/l, 48 h): gray | intensity of coloration (Serratia marcescens 038 [9]; 16 ml/l, 48 h): 4 | color (Serratia marcescens 038 [10]; 2 ml/l, 24 h): gray | intensity of coloration (Serratia marcescens 038 [10]; 2 ml/l, 24 h): 2 | color (Serratia marcescens 038 [10]; 2 ml/l, 48 h): gray | intensity of coloration (Serratia marcescens 038 [10]; 2 ml/l, 48 h): 3 | color (Serratia marcescens 038 [10]; 4 ml/l, 24 h): gray | intensity of coloration (Serratia marcescens 038 [10]; 4 ml/l, 24 h): 2 | color (Serratia marcescens 038 [10]; 4 ml/l, 48 h): gray | intensity of coloration (Serratia marcescens 038 [10]; 4 ml/l, 48 h): 4 | color (Serratia marcescens 038 [10]; 8 ml/l, 24 h): gray | intensity of coloration (Serratia marcescens 038 [10]; 8 ml/l, 24 h): 2 | color (Serratia marcescens 038 [10]; 8 ml/l, 48 h): gray | intensity of coloration (Serratia marcescens 038 [10]; 8 ml/l, 48 h): 4 | color (Serratia marcescens 038 [10]; 16 ml/l, 24 h): gray | intensity of coloration (Serratia marcescens 038 [10]; 16 ml/l, 24 h): 2 | color (Serratia marcescens 038 [10]; 16 ml/l, 48 h): gray | intensity of coloration (Serratia marcescens 038 [10]; 16 ml/l, 48 h): 4
